Measurements: BigSolDB 2.1

O=[N+]([O-])c1cc([N+](=O)[O-])c(Cl)c(Cl)c1Cl
solubility (mole fraction)
Details | 278.15 K | 283.15 K | 288.15 K | 293.15 K | 298.15 K | 303.15 K | 308.15 K | 313.15 K | 318.15 K | 323.15 K
in 1,2-dichloroethane | 0.06 | 0.0736 | 0.0895 | 0.108 | 0.13 | 0.155 | 0.185 | 0.219 | 0.258 | 0.301
in DMF | 0.194 | 0.211 | 0.23 | 0.251 | 0.274 | 0.298 | 0.324 | 0.352 | 0.384 | 0.419
in DMSO | – | – | – | 0.238 | 0.262 | 0.287 | 0.315 | 0.345 | 0.378 | 0.412
in NMP | 0.278 | 0.291 | 0.305 | 0.321 | 0.338 | 0.357 | 0.377 | 0.4 | 0.425 | 0.454
in acetone | 0.109 | 0.124 | 0.141 | 0.16 | 0.181 | 0.204 | 0.229 | 0.257 | 0.289 | 0.323
in acetonitrile | 0.0401 | 0.0511 | 0.0644 | 0.0806 | 0.1 | 0.123 | 0.15 | 0.183 | 0.22 | 0.265
in chloroform | 0.0536 | 0.066 | 0.0807 | 0.0982 | 0.118 | 0.141 | 0.169 | 0.201 | 0.237 | 0.279
in dichloromethane | 0.0689 | 0.0822 | 0.0975 | 0.116 | 0.135 | 0.159 | 0.185 | – | – | –
in ethanol | 0.00235 | 0.00301 | 0.00382 | 0.00483 | 0.00611 | 0.00765 | 0.00957 | 0.0118 | 0.0146 | 0.0182
in ethyl acetate | 0.097 | 0.111 | 0.128 | 0.146 | 0.167 | 0.191 | 0.217 | 0.245 | 0.279 | 0.314
in isopropanol | 0.000879 | 0.00125 | 0.00174 | 0.00241 | 0.00333 | 0.00451 | 0.00603 | 0.00807 | 0.0107 | 0.0142
in methanol | 0.00262 | 0.0033 | 0.00414 | 0.00519 | 0.00648 | 0.00806 | 0.00985 | 0.0121 | 0.0149 | 0.0182
in n-butanol | 0.00175 | 0.00238 | 0.0032 | 0.00428 | 0.00565 | 0.00752 | 0.00967 | 0.0126 | 0.0164 | 0.021
in tetrachloromethane | 0.00374 | 0.00582 | 0.00891 | 0.0134 | 0.0201 | 0.0296 | 0.0425 | 0.0609 | 0.0864 | 0.12
in toluene | 0.14 | 0.159 | 0.18 | 0.204 | 0.23 | 0.258 | 0.289 | 0.323 | 0.36 | 0.4
